Tests used:
Assay type in all cases: physicochemical
[1] = Quat removal from brine: additive, then heptane extraction, water layer analyzed for quat (Examples 1-4); details: brine of 97.50 g water and 2.50 μg sodium chloride dosed with 1.52 g methanolic quat solution; 90 ml sample; 1.00 g DDBSA or 0.90 g oleic acid; shaken 1 minute with 10 ml heptane; centrifuged
Procedure: A brine solution comprising 97.50 g of water and […] of sodium chloride was dosed with 1.52 g of a methanolic solution of a quat (solution contains 33% methanol and 67% RE 4136 quaternary ammonium compound available from Baker Petrolite). A 90 ml sample of the water, sodium chloride, quat solution was shaken by hand for 1 minute with 10 ml of heptane. The mixture is centrifuged to separate the layers and the water layer was analyzed for quat. The above test was repeated but in this case the sample was dosed with 1.00 g of dodecylbenzenesulfonic acid (DDBSA) or 0.90 g of oleic acid (as indicated) before the addition of heptane and shaken by hand. These two cases required prolonged centrifugation to separate the phases. Again, the water phase was analyzed for quat. The quat concentration is expressed in ppm of methanolic quat solution.

[2] = Quat removal from brine: additive without heptane, oil layer separated, water layer washed with heptane (Examples 5-6); details: same brine/quat solution, 90 ml; 0.45 g p-TSA or 0.74 g naphthenic acids; shaken 1 minute without heptane; water layer washed with 10 ml heptane
Procedure: In a second set of tests, a 90 ml sample of the above water, sodium chloride and quat solution was dosed with 0.45 g of para-toluenesulfonic acid (p-TSA) or 0.74 g of a mixture of naphthenic acids (as indicated). In this test, the mixture was shaken 1 minute by hand in the absence of heptane. The samples were centrifuged. An oil layer separated and remained at the top of the samples. The slightly hazy water layer was removed. The water layer was washed with 10 ml of heptane and again centrifuged. The clear water layer was analyzed for quat.

[3] = Quat removal from 16% sodium chloride brine suspension (Examples 7-8); details: brine of 84 g water and 16 g sodium chloride with 1.52 g quat solution, used as suspension; 90 ml; 0.45 g p-TSA or 0.74 g naphthenic acids
Procedure: In a third set of tests, a brine solution comprising 84 g of water and 16 g of sodium chloride was dosed with 1.52 g of the above quat solution. In this case, the quat separates to some extent from the brine on standing and was used immediately in the next step as a suspension. A 90 ml sample of this suspension was dosed with 0.45 g of p-TSA or 0.74 g of a mixture of naphthenic acids (as indicated). The samples were treated as above and analyzed for quat.

SMILES | ppm of methanolic quat solution in water [1] | ppm of methanolic quat solution in water [2] [ppm] | ppm of methanolic quat solution in water [3] [ppm]
CCCCCCC [Heptane only, heptane] | 15,000 ppm |  | 
CCCCCCCCCCCCc1ccc(S(=O)(=O)O)cc1 [DDBSA, dodecylbenzenesulfonic acid] | 76 ppm |  | 
CCCCCCCC/C=C\CCCCCCCC(=O)O [Oleic acid, oleic acid] | 121 ppm |  | 
Cc1ccc(S(=O)(=O)O)cc1 [p-TSA, para-toluenesulfonic acid] |  | 178 | 88

Source: patent US6841089B2, “Detoxification of onium compounds” (Baker Hughes Incorporated, priority 2001, dated 2005)
